{"source": "paper PMC11994375", "about": "“In vitro activation of the CB1 receptor by the semi‐synthetic cannabinoids hexahydrocannabinol (HHC), hexahydrocannabinol acetate (HHC‐O) and hexahydrocannabiphorol (HHC‐P)” (Drug Testing and Analysis, 2024)"}
{"target": "T1, human CB1 receptor (Homo sapiens, UniProt P21554)", "T1 construct": "gene CNR1; recombinant receptor in CHO-K1 AequoScreen cells (aequorin luminescence line, Revvity ES-110-AF)", "T1 sequence (P21554 whole entry)": "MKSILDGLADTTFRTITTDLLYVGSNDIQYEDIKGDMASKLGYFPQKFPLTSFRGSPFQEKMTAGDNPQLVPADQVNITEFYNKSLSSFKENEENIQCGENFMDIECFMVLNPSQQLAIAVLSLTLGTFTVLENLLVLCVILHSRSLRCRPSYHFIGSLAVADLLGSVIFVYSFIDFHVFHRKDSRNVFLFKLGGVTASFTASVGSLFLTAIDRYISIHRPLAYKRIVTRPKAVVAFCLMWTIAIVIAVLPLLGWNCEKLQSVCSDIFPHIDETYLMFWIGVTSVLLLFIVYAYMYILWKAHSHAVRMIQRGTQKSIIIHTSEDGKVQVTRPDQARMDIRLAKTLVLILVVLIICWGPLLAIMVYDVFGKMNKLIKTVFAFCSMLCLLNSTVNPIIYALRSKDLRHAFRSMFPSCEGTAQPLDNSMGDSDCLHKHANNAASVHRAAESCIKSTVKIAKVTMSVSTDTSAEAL", "experiment": "aequorin luminescence agonist assay, CHO-K1 cells", "type": "cell-based", "conditions": "agonist mode, tested up to 60 uM; silanized plastic, glass vials; 0.05% BSA assay medium"}
{"compound": "CCCCCc1cc(OC(C)=O)c2c(c1)OC(C)(C)[C@@H]1CC[C@H](C)C[C@@H]21", "note": "[(9S)-HHC-O]", "EC50 n.d.": "(9S)‐HHC‐O did not activate the CB1 receptor"}
{"target": "T1, human CB1 receptor", "experiment": "aequorin luminescence agonist assay, CHO-K1 cells", "type": "cell-based", "conditions": "read-out: EC50 (95% CI)", "source_text": "aequorin luminescence agonist assay, CHO-K1 cells on human CB1 receptor", "units": {"EC50": "nM"}}
{"compound": "CCCCCc1cc(OC(C)=O)c2c(c1)OC(C)(C)[C@@H]1CC[C@@H](C)C[C@@H]21", "note": "[(9R)-HHC-O]", "EC50": "> 33000"}
{"compound": "CCCCCCCc1cc(O)c2c(c1)OC(C)(C)[C@@H]1CC[C@@H](C)C[C@@H]21", "note": "[(9R)-HHC-P]", "EC50": 44.4}
{"compound": "CCCCCc1cc(O)c2c(c1)OC(C)(C)[C@@H]1CC[C@@H](C)C[C@@H]21", "note": "[(9R)-HHC]", "EC50": 101}
{"compound": "CCCCCCCc1cc(O)c2c(c1)OC(C)(C)[C@@H]1CC[C@H](C)C[C@@H]21", "note": "[(9S)-HHC-P]", "EC50": 134}
{"compound": "CCCCCc1cc(O)c2c(c1)OC(C)(C)[C@@H]1CC[C@H](C)C[C@@H]21", "note": "[(9S)-HHC]", "EC50": 1190}
{"compound": "CCCCCn1cc(C(=O)c2cccc3ccccc23)c2ccccc21", "note": "[JWH-018, reference compound]", "EC50": 22.5}
